Test results reported in US11980188B2, “Spiro cyclohexanedione derivates as herbicides” (SYNGENTA PARTICIPATIONS AG, priority 2018, dated 2024).

Legend:
Assay in all cases: Glasshouse herbicide test, pre- and post-emergence, percentage damage
Assay type in all cases: in vivo
[1] = test system: Setaria faberi (SETFA); details: 250 g/h, evaluated after 13 days, percentage damage on five point scale; for SETFA POST: post-emergence; for SETFA PRE: pre-emergence
Procedure, shortened: (§1)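 Each compound is sprayed at 250 g/h on pots either 1 or 8 days after sowing (pre- and post-emergence respectively). Growth under controlled glasshouse conditions, 24/16 °C day/night and 65% humidity, continues for 13 days before damage is rated on a five-point scale.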

[2] = test system: Lolium perenne (LOLPE); details: 250 g/h, evaluated after 13 days, percentage damage on five point scale; for LOLPE POST: post-emergence; for LOLPE PRE: pre-emergence
Procedure, shortened: as §1

[3] = test system: Avena fatua (AVEFA); details: 250 g/h, evaluated after 13 days, percentage damage on five point scale; for AVEFA POST: post-emergence; for AVEFA PRE: pre-emergence
Procedure, shortened: as §1

[4] = test system: Alopecurus myosuroides (ALOMY); details: 250 g/h, evaluated after 13 days, percentage damage on five point scale; for ALOMY POST: post-emergence; for ALOMY PRE: pre-emergence
Procedure, shortened: as §1

[5] = test system: Echinochloa crus-galli (ECHCG); details: 250 g/h, evaluated after 13 days, percentage damage on five point scale; for ECHCG PRE: pre-emergence; for ECHCG POST: post-emergence
Procedure, shortened: as §1

Cc1cc(-c2ncc(F)cn2)cc(C)c1C1C(=O)CC2(CCN(C(=O)NC(C)(C)C)CC2)CC1=O [Compound A36]
SETFA POST [1]: 5 (5=80-100%)
SETFA PRE [1]: 5 (5=80-100%)
LOLPE POST [2]: 5 (5=80-100%)
LOLPE PRE [2]: 5 (5=80-100%)
AVEFA POST [3]: 5 (5=80-100%)
AVEFA PRE [3]: 5 (5=80-100%)
ALOMY POST [4]: 5 (5=80-100%)
ALOMY PRE [4]: 5 (5=80-100%)
ECHCG PRE [5]: 5 (5=80-100%)

COc1cc(-c2ncc(F)cn2)cc(OC)c1C1C(=O)CC2(CCN(C(C)=O)CC2)CC1=O [Compound A15]
SETFA POST [1]: 5 (5=80-100%)
SETFA PRE [1]: 5 (5=80-100%)
LOLPE POST [2]: 5 (5=80-100%)
LOLPE PRE [2]: 5 (5=80-100%)
AVEFA POST [3]: 5 (5=80-100%)
AVEFA PRE [3]: 5 (5=80-100%)
ALOMY POST [4]: 5 (5=80-100%)
ALOMY PRE [4]: 5 (5=80-100%)
ECHCG POST [5]: 5 (5=80-100%)
ECHCG PRE [5]: 5 (5=80-100%)

CC(=O)N1CCC2(CC1)CC(=O)C(c1c(C)cc(-c3ncc(Cl)cn3)cc1C)C(=O)C2 [Compound A51]
SETFA POST [1]: 5 (5=80-100%)
SETFA PRE [1]: 5 (5=80-100%)
LOLPE POST [2]: 5 (5=80-100%)
LOLPE PRE [2]: 5 (5=80-100%)
AVEFA POST [3]: 5 (5=80-100%)
AVEFA PRE [3]: 5 (5=80-100%)
ALOMY POST [4]: 5 (5=80-100%)
ALOMY PRE [4]: 5 (5=80-100%)
ECHCG POST [5]: 5 (5=80-100%)
ECHCG PRE [5]: 5 (5=80-100%)

Cc1cc(-c2ccc(C#N)cn2)cc(C)c1C1C(=O)CC2(CCN(C(=O)NC(=O)c3ccccn3)CC2)CC1=O [Compound A31]
SETFA POST [1]: 5 (5=80-100%)
SETFA PRE [1]: 1 (1=0-19%)
LOLPE POST [2]: 5 (5=80-100%)
LOLPE PRE [2]: 1 (1=0-19%)
AVEFA POST [3]: 5 (5=80-100%)
ALOMY POST [4]: 5 (5=80-100%)
ALOMY PRE [4]: 1 (1=0-19%)
ECHCG POST [5]: 5 (5=80-100%)
ECHCG PRE [5]: 3 (3=40-59%)

Cc1cc(-c2ccc(F)cc2)cc(C)c1C1C(=O)CC2(CCN(C(=O)C3CC3)CC2)CC1=O [Compound A59]
SETFA POST [1]: 5 (5=80-100%)
SETFA PRE [1]: 5 (5=80-100%)
LOLPE POST [2]: 5 (5=80-100%)
LOLPE PRE [2]: 5 (5=80-100%)
AVEFA POST [3]: 5 (5=80-100%)
AVEFA PRE [3]: 5 (5=80-100%)
ALOMY PRE [4]: 5 (5=80-100%)
ECHCG POST [5]: 5 (5=80-100%)
ECHCG PRE [5]: 5 (5=80-100%)

Cc1cc(-c2ncc(F)cn2)cc(C)c1C1C(=O)CC2(CCN(C(=O)NC(=O)C(C)(C)C)CC2)CC1=O [Compound A37]
SETFA POST [1]: 5 (5=80-100%)
SETFA PRE [1]: 5 (5=80-100%)
LOLPE POST [2]: 5 (5=80-100%)
LOLPE PRE [2]: 5 (5=80-100%)
AVEFA POST [3]: 5 (5=80-100%)
AVEFA PRE [3]: 5 (5=80-100%)
ALOMY POST [4]: 5 (5=80-100%)
ALOMY PRE [4]: 5 (5=80-100%)
ECHCG PRE [5]: 5 (5=80-100%)

Cc1cc(-c2ccc(F)cc2)cc(C)c1C1C(=O)CC2(CCN(C(=O)C(F)F)CC2)CC1=O [Compound A60]
SETFA POST [1]: 5 (5=80-100%)
SETFA PRE [1]: 5 (5=80-100%)
LOLPE POST [2]: 5 (5=80-100%)
LOLPE PRE [2]: 5 (5=80-100%)
AVEFA POST [3]: 5 (5=80-100%)
AVEFA PRE [3]: 5 (5=80-100%)
ALOMY PRE [4]: 5 (5=80-100%)
ECHCG POST [5]: 5 (5=80-100%)
ECHCG PRE [5]: 5 (5=80-100%)

CON1CCC2(CC1)CC(=O)C(c1c(C)cc(-c3ccc(F)cc3)cc1C)C(=O)C2 [Compound A6]
SETFA POST [1]: 5 (5=80-100%)
SETFA PRE [1]: 5 (5=80-100%)
LOLPE POST [2]: 5 (5=80-100%)
LOLPE PRE [2]: 5 (5=80-100%)
AVEFA POST [3]: 5 (5=80-100%)
AVEFA PRE [3]: 5 (5=80-100%)
ALOMY POST [4]: 5 (5=80-100%)
ALOMY PRE [4]: 5 (5=80-100%)
ECHCG POST [5]: 5 (5=80-100%)
ECHCG PRE [5]: 5 (5=80-100%)

CC(=O)N1CCC2(CC1)CC(=O)C(c1c(C)cc(C)cc1C)C(=O)C2 [Compound A42]
SETFA POST [1]: 5 (5=80-100%)
SETFA PRE [1]: 5 (5=80-100%)
LOLPE POST [2]: 5 (5=80-100%)
LOLPE PRE [2]: 5 (5=80-100%)
AVEFA POST [3]: 5 (5=80-100%)
AVEFA PRE [3]: 5 (5=80-100%)
ALOMY POST [4]: 5 (5=80-100%)
ALOMY PRE [4]: 5 (5=80-100%)
ECHCG POST [5]: 1 (1=0-19%)
ECHCG PRE [5]: 3 (3=40-59%)

Cc1cc(-c2ncc(F)cn2)cc(C)c1C1C(=O)CC2(CCN(C(=O)C(F)F)CC2)CC1=O [Compound A39]
SETFA POST [1]: 5 (5=80-100%)
SETFA PRE [1]: 5 (5=80-100%)
LOLPE POST [2]: 5 (5=80-100%)
LOLPE PRE [2]: 5 (5=80-100%)
AVEFA POST [3]: 5 (5=80-100%)
AVEFA PRE [3]: 5 (5=80-100%)
ALOMY POST [4]: 5 (5=80-100%)
ALOMY PRE [4]: 5 (5=80-100%)
ECHCG POST [5]: 5 (5=80-100%)
ECHCG PRE [5]: 5 (5=80-100%)

Cc1cc(-c2ncc(F)cn2)cc(C)c1C1C(=O)CC2(CCN(C(=O)CC#N)CC2)CC1=O [Compound A43]
SETFA POST [1]: 5 (5=80-100%)
SETFA PRE [1]: 5 (5=80-100%)
LOLPE POST [2]: 5 (5=80-100%)
LOLPE PRE [2]: 5 (5=80-100%)
AVEFA POST [3]: 5 (5=80-100%)
AVEFA PRE [3]: 5 (5=80-100%)
ALOMY POST [4]: 5 (5=80-100%)
ALOMY PRE [4]: 5 (5=80-100%)
ECHCG POST [5]: 5 (5=80-100%)
ECHCG PRE [5]: 5 (5=80-100%)

CCS(=O)(=O)N1CCC2(CC1)CC(=O)C(c1c(C)cc(-c3ncc(F)cn3)cc1C)C(=O)C2 [Compound A32]
SETFA POST [1]: 5 (5=80-100%)
SETFA PRE [1]: 5 (5=80-100%)
LOLPE POST [2]: 5 (5=80-100%)
LOLPE PRE [2]: 5 (5=80-100%)
AVEFA POST [3]: 5 (5=80-100%)
AVEFA PRE [3]: 5 (5=80-100%)
ALOMY POST [4]: 5 (5=80-100%)
ALOMY PRE [4]: 5 (5=80-100%)
ECHCG POST [5]: 5 (5=80-100%)
ECHCG PRE [5]: 5 (5=80-100%)

Cc1cc(-c2ccc(F)cc2)cc(C)c1C1C(=O)CC2(CCN(C(=O)CC#N)CC2)CC1=O [Compound A63]
SETFA POST [1]: 5 (5=80-100%)
SETFA PRE [1]: 5 (5=80-100%)
LOLPE POST [2]: 5 (5=80-100%)
LOLPE PRE [2]: 5 (5=80-100%)
AVEFA POST [3]: 5 (5=80-100%)
AVEFA PRE [3]: 5 (5=80-100%)
ALOMY PRE [4]: 5 (5=80-100%)
ECHCG POST [5]: 4 (4=60-79%)
ECHCG PRE [5]: 5 (5=80-100%)

CON1CCC2(CC1)CC(=O)C(c1c(C)cc(-c3ccc(C#N)cn3)cc1C)C(=O)C2 [Compound A3]
SETFA POST [1]: 5 (5=80-100%)
SETFA PRE [1]: 5 (5=80-100%)
LOLPE POST [2]: 5 (5=80-100%)
LOLPE PRE [2]: 5 (5=80-100%)
AVEFA POST [3]: 5 (5=80-100%)
AVEFA PRE [3]: 5 (5=80-100%)
ALOMY POST [4]: 5 (5=80-100%)
ALOMY PRE [4]: 5 (5=80-100%)
ECHCG POST [5]: 5 (5=80-100%)
ECHCG PRE [5]: 5 (5=80-100%)

Cc1cc(-c2ccc(C#N)cn2)cc(C)c1C1C(=O)CC2(CCN(C(=O)c3ccccc3)CC2)CC1=O [Compound A23]
SETFA POST [1]: 5 (5=80-100%)
SETFA PRE [1]: 5 (5=80-100%)
LOLPE POST [2]: 5 (5=80-100%)
LOLPE PRE [2]: 5 (5=80-100%)
AVEFA POST [3]: 5 (5=80-100%)
AVEFA PRE [3]: 5 (5=80-100%)
ALOMY POST [4]: 5 (5=80-100%)
ALOMY PRE [4]: 5 (5=80-100%)
ECHCG POST [5]: 5 (5=80-100%)
ECHCG PRE [5]: 5 (5=80-100%)

CC(=O)N1CCC2(CC1)CC(=O)C(c1c(C)cc(-c3ncc(F)cc3F)cc1C)C(=O)C2 [Compound A48]
SETFA POST [1]: 5 (5=80-100%)
SETFA PRE [1]: 5 (5=80-100%)
LOLPE POST [2]: 5 (5=80-100%)
LOLPE PRE [2]: 5 (5=80-100%)
AVEFA POST [3]: 5 (5=80-100%)
AVEFA PRE [3]: 5 (5=80-100%)
ALOMY POST [4]: 5 (5=80-100%)
ALOMY PRE [4]: 5 (5=80-100%)
ECHCG POST [5]: 5 (5=80-100%)
ECHCG PRE [5]: 5 (5=80-100%)
